Assay results as given in patent US20060069132A1, “Azolecarboxamide herbicides” (priority 2004, published 2006).

Legend:
[1] = tested on: cocklebur; assay: Test B pre-/postemergence herbicide test; format: in vivo, Xanthium strumarium
Outline: (§1)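 Evaluation is visual, comparing treated with control plants on a scale where 0 means no effect and 100 means full control. Treatments were preemergence, or postemergence on seedlings 2–18 cm tall, and held 13–15 days in the greenhouse.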

[2] = tested on: barnyardgrass; assay: Test B flooded paddy test; format: in vivo, Echinochloa crus-galli; details: 1000 g ai/ha, scale 0 to 100 (0 no effect, 100 complete control)
Outline: (§2)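 Each value is a visual 0–100 response rating taken against controls 13 to 15 days after treatment in the greenhouse. Plants received formulated chemical postemergence at the 1- to 4-leaf stage or, in flooded paddy, at the 2-leaf stage.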

[3] = tested on: rice; assay: Test B flooded paddy test; format: in vivo, Oryza sativa; details: 1000 g ai/ha, scale 0 to 100 (0 no effect, 100 complete control)
Outline: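 Plants grow to 1- to 4-leaf stage (2–18 cm) for postemergence spraying, or to 2-leaf stage for the paddy test. Formulated compound is applied. Greenhouse holding lasts 13–15 days. Response is scored visually relative to controls, 0 no effect to 100 complete control; a dash means no result.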

[4] = tested on: morningglory; assay: Test B pre-/postemergence herbicide test; format: in vivo, Ipomoea coccinea
Outline: as §1

[5] = tested on: velvetleaf; assay: Test B pre-/postemergence herbicide test; format: in vivo, Abutilon theophrasti
Outline: (§3)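 Pre: seeds sown, then sprayed. Post: 1–4-leaf plants (2–18 cm) sprayed at the same time. Paddy: flooded, treated at 2-leaf stage. Formulation: non-phytotoxic solvent with surfactant. Greenhouse 13–15 days; visual 0–100 score relative to controls.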

[6] = tested on: lambsquarters; assay: Test B pre-/postemergence herbicide test; format: in vivo, Chenopodium album
Outline: as §3

[7] = tested on: blackgrass; assay: Test B postemergence herbicide test; format: in vivo, Alopecurus myosuroides
Outline: as §2

[8] = tested on: wheat; assay: Test B postemergence herbicide test; format: in vivo, Triticum aestivum; set-up: key to Wheat plant response rating: 0 = no effect, 100 = complete control
Outline: as §2

[9] = tested on: corn; assay: Test B pre-/postemergence herbicide test; format: in vivo, Zea mays
Outline: as §3

[10] = tested on: giant foxtail; assay: Test B pre-/postemergence herbicide test; format: in vivo, Setaria faberi
Outline: as §3

[11] = tested on: ducksalad; assay: Test B flooded paddy test; format: in vivo, Heteranthera limosa; details: 1000 g ai/ha, scale 0 to 100 (0 no effect, 100 complete control)
Outline: as §2

[12] = tested on: small flower umbrella sedge; assay: Test B flooded paddy test; format: in vivo, Cyperus difformis; details: 1000 g ai/ha, scale 0 to 100 (0 no effect, 100 complete control)
Outline: as §2

[13] = tested on: wild oat; assay: Test B postemergence herbicide test; format: in vivo, Avena fatua
Outline: as §2

[14] = tested on: large crabgrass; assay: Test B pre-/postemergence herbicide test; format: in vivo, Digitaria sanguinalis
Outline: as §3

[15] = tested on: pigweed; assay: Test B pre-/postemergence herbicide test; format: in vivo, Amaranthus retroflexus
Outline: as §3

[16] = tested on: Surinam grass; assay: Test B pre-/postemergence herbicide test; format: in vivo, Urochloa decumbens
Outline: as §3

[17] = tested on: barnyardgrass; assay: Test B pre-/postemergence herbicide test; format: in vivo, Echinochloa crus-galli
Outline: as §1

[18] = 125 g ai/ha, 0 is no effect, 100 is complete control, preemergence
[19] = Postemergence, 500 g ai/ha, scale 0 (no effect) to 100 (complete control)
[20] = postemergence, 125 g ai/ha, scale 0 to 100
[21] = 500 g ai/ha, visual rating 0-100, 0 no effect, 100 complete control, preemergence
[22] = Postemergence, 500 g ai/ha, visual rating after 13 to 15 days, scale 0 (no effect) to 100 (complete control)
[23] = postemergence, 125 g ai/ha, visual rating, scale 0 (no effect) to 100 (complete control)
[24] = preemergence, 125 g ai/ha, 0 to 100 scale, 0 is no effect, 100 is complete control

Question: `Cc1nn(C(C)(C)C)nc1C(=O)Nc1cncc(C(=O)N(C)C)c1` [Compound 426] was tested. Which “Plant response rating (0 to 100 scale), Cocklebur” value [1, 18] did it give?
Answer: The value was 0.

Question: What about the “Cocklebur plant response rating” value [1, 19] of the same molecule?
Answer: Its value is 20.

Question: And the “Cocklebur plant response rating” value [1, 20]?
Answer: Its value is 10.

Question: And the “Barnyardgrass plant response rating” value [2]?
Answer: Its value is 0.

Question: And the “Rice plant response rating” value [3]?
Answer: The value was 0.

Question: What about the “Plant response rating (0 to 100 scale), Morningglory” value [4, 18] of the same molecule?
Answer: The value was 0.

Question: What about the “Morningglory plant response rating” value [4, 19] of the same molecule?
Answer: The value was 50.

Question: What about the “Morningglory plant response rating” value [4, 20] of the same molecule?
Answer: Its value is 20.

Question: And the “Plant response rating (0 to 100 scale), Velvetleaf” value [5, 18]?
Answer: Its value is 10.

Question: And the “Velvetleaf plant response rating” value [5, 19]?
Answer: Its value is 40.

Question: And the “Velvetleaf plant response rating” value [5, 20]?
Answer: Its value is 30.

Question: What about the “Plant response rating (0 to 100 scale), Lambsquarters” value [6, 18] of the same molecule?
Answer: Its value is 40.

Question: And the “Lambsquarters plant response rating” value [6, 19]?
Answer: Its value is 50.

Question: And the “Lambsquarters plant response rating” value [6, 20]?
Answer: Its value is 20.

Question: And the “Blackgrass plant response rating” value [7, 19]?
Answer: The value was 0.

Question: And the “Blackgrass plant response rating” value [7, 20]?
Answer: The value was 0.

Question: And the “Wheat plant response rating” value ([8]; 500 g ai/ha, scale 0 to 100, 0 no effect, 100 complete control, preemergence)?
Answer: The value was 10.

Question: What about the “Wheat plant response rating” value [8, 19] of the same molecule?
Answer: Its value is 0.

Question: And the “Wheat plant response rating” value [8, 20]?
Answer: The value was 0.

Question: And the “Plant response rating (0 to 100 scale), Corn” value [9, 18]?
Answer: Its value is 0.

Question: What about the “Corn plant response rating” value [9, 19] of the same molecule?
Answer: The value was 10.

Question: And the “Corn plant response rating” value [9, 20]?
Answer: The value was 10.

Question: What about the “Plant response rating (0 to 100 scale), Foxtail, Giant” value [10, 18] of the same molecule?
Answer: Its value is 0.

Question: What about the “Foxtail, Giant plant response rating” value [10, 19] of the same molecule?
Answer: The value was 30.

Question: What about the “Foxtail, Giant plant response rating” value [10, 20] of the same molecule?
Answer: The value was 20.

Question: What about the “Ducksalad plant response rating” value [11] of the same molecule?
Answer: Its value is 70.

Question: And the “Sedge, Umbrella plant response rating” value [12]?
Answer: Its value is 70.

Question: And the “Oat, Wild plant response rating” value [13, 19]?
Answer: The value was 0.

Question: What about the “Oat, Wild plant response rating” value [13, 20] of the same molecule?
Answer: The value was 0.

Question: What about the “Plant response rating (0 to 100 scale), Crabgrass, Large” value [14, 18] of the same molecule?
Answer: Its value is 70.

Question: What about the “Crabgrass, Large plant response rating” value [14, 19] of the same molecule?
Answer: Its value is 20.

Question: And the “Crabgrass, Large plant response rating” value [14, 20]?
Answer: The value was 10.

Question: And the “Plant response rating (0 to 100 scale), Pigweed” value [15, 18]?
Answer: The value was 50.

Question: What about the “Pigweed plant response rating” value [15, 19] of the same molecule?
Answer: Its value is 50.

Question: And the “Pigweed plant response rating” value [15, 20]?
Answer: The value was 30.

Question: What about the “Plant response rating (0 to 100 scale), Surinam Grass” value [16, 18] of the same molecule?
Answer: The value was 10.

Question: And the “Surinam Grass plant response rating” value [16, 19]?
Answer: The value was 20.

Question: What about the “Surinam Grass plant response rating” value [16, 20] of the same molecule?
Answer: Its value is 10.

Question: What about the “Plant response rating (0 to 100 scale), Barnyardgrass” value [17, 18] of the same molecule?
Answer: Its value is 10.

Question: What about the “Barnyardgrass plant response rating” value ([17]; Postemergence, 125 g ai/ha, scale 0 (no effect) to 100 (complete control)) of the same molecule?
Answer: Its value is 0.

Question: And the “Barnyardgrass plant response rating” value [17, 19]?
Answer: Its value is 20.

Question: For `COc1ccc(C(C)=NO)cc1NC(=O)c1cc(C(C)(C)C)nn1C` [Compound 104], which “Plant response rating, Cocklebur” value [1, 21] is on record?
Answer: Its value is 0.

Question: What about the “Plant response rating, Cocklebur” value [1, 22] of the same molecule?
Answer: Its value is 0.

Question: And the “Cocklebur plant response rating” value [1, 23]?
Answer: The value was 0.

Question: What about the “Plant response rating, Cocklebur” value [1, 24] of the same molecule?
Answer: Its value is 0.

Question: And the “Barnyardgrass plant response rating” value ([2]; visual rating, 13 to 15 days)?
Answer: Its value is 0.

Question: What about the “Rice plant response rating” value ([3]; visual rating, 13 to 15 days) of the same molecule?
Answer: The value was 0.

Question: What about the “Plant response rating, Morningglory” value [4, 21] of the same molecule?
Answer: Its value is 20.

Question: And the “Plant response rating, Morningglory” value [4, 22]?
Answer: The value was 0.

Question: And the “Morningglory plant response rating” value [4, 23]?
Answer: Its value is 0.

Question: What about the “Plant response rating, Morningglory” value [4, 24] of the same molecule?
Answer: Its value is 0.

Question: What about the “Plant response rating, Velvetleaf” value [5, 21] of the same molecule?
Answer: Its value is 0.

Question: What about the “Plant response rating, Velvetleaf” value [5, 22] of the same molecule?
Answer: The value was 0.

Question: What about the “Velvetleaf plant response rating” value [5, 23] of the same molecule?
Answer: Its value is 0.

Question: What about the “Plant response rating, Velvetleaf” value [5, 24] of the same molecule?
Answer: Its value is 0.

Question: And the “Plant response rating, Lambsquarters” value [6, 21]?
Answer: Its value is 80.

Question: What about the “Plant response rating, Lambsquarters” value [6, 22] of the same molecule?
Answer: Its value is 20.

Question: What about the “Lambsquarters plant response rating” value [6, 23] of the same molecule?
Answer: The value was 0.

Question: And the “Plant response rating, Lambsquarters” value [6, 24]?
Answer: Its value is 60.

Question: What about the “Plant response rating, Blackgrass” value [7, 22] of the same molecule?
Answer: The value was 0.

Question: And the “Blackgrass plant response rating” value [7, 23]?
Answer: The value was 0.

Question: And the “Plant response rating, Wheat” value [8, 22]?
Answer: Its value is 0.

Question: What about the “Wheat plant response rating” value [8, 23] of the same molecule?
Answer: Its value is 0.

Question: And the “Plant response rating, Corn” value [9, 21]?
Answer: Its value is 0.

Question: What about the “Plant response rating, Corn” value [9, 22] of the same molecule?
Answer: The value was 0.

Question: And the “Corn plant response rating” value [9, 23]?
Answer: The value was 0.

Question: And the “Plant response rating, Corn” value [9, 24]?
Answer: Its value is 0.

Question: And the “Plant response rating, Foxtail, Giant” value [10, 21]?
Answer: The value was 20.

Question: And the “Plant response rating, Foxtail, Giant” value [10, 22]?
Answer: The value was 0.

Question: What about the “Foxtail, Giant plant response rating” value [10, 23] of the same molecule?
Answer: The value was 0.

Question: And the “Plant response rating, Foxtail, Giant” value [10, 24]?
Answer: Its value is 0.

Question: And the “Ducksalad plant response rating” value ([11]; visual rating, 13 to 15 days)?
Answer: The value was 60.

Question: What about the “Sedge, Umbrella plant response rating” value ([12]; visual rating, 13 to 15 days) of the same molecule?
Answer: Its value is 70.

Question: And the “Plant response rating, Oat, Wild” value [13, 22]?
Answer: The value was 0.

Question: And the “Oat, Wild plant response rating” value [13, 23]?
Answer: The value was 0.

Question: What about the “Plant response rating, Crabgrass, Large” value [14, 21] of the same molecule?
Answer: Its value is 90.

Question: What about the “Plant response rating, Crabgrass, Large” value [14, 22] of the same molecule?
Answer: The value was 0.

Question: What about the “Crabgrass, Large plant response rating” value [14, 23] of the same molecule?
Answer: Its value is 0.

Question: And the “Plant response rating, Crabgrass, Large” value [14, 24]?
Answer: Its value is 80.

Question: What about the “Plant response rating, Pigweed” value [15, 21] of the same molecule?
Answer: The value was 70.

Question: What about the “Plant response rating, Pigweed” value [15, 22] of the same molecule?
Answer: The value was 10.

Question: And the “Pigweed plant response rating” value [15, 23]?
Answer: Its value is 10.

Question: What about the “Plant response rating, Pigweed” value [15, 24] of the same molecule?
Answer: The value was 60.

Question: And the “Plant response rating, Surinam Grass” value [16, 21]?
Answer: Its value is 20.

Question: What about the “Plant response rating, Surinam Grass” value [16, 22] of the same molecule?
Answer: The value was 10.

Question: And the “Surinam Grass plant response rating” value [16, 23]?
Answer: The value was 0.

Question: What about the “Plant response rating, Surinam Grass” value [16, 24] of the same molecule?
Answer: Its value is 0.

Question: And the “Plant response rating, Barnyardgrass” value [17, 21]?
Answer: The value was 80.

Question: And the “Plant response rating, Barnyardgrass” value [17, 22]?
Answer: The value was 0.

Question: And the “Barnyardgrass plant response rating” value [17, 23]?
Answer: Its value is 0.

Question: And the “Plant response rating, Barnyardgrass” value [17, 24]?
Answer: Its value is 0.
